This is an account of results in the supplement of paper PMC10307832.

Common to all, as to experiment: relative viability (nuclei count vs DMSO), 5 days (fraction); higher = more cells survive
Compound in the test “Pictilisib + Navitoclax”: CS(=O)(=O)N1CCN(Cc2cc3nc(-c4cccc5[nH]ncc45)nc(N4CCOCC4)c3s2)CC1 [Pictilisib] + CC1(C)CCC(c2ccc(Cl)cc2)=C(CN2CCN(c3ccc(C(=O)NS(=O)(=O)c4ccc(N[C@H](CCN5CCOCC5)CSc5ccccc5)c(S(=O)(=O)C(F)(F)F)c4)cc3)CC2)C1 [Navitoclax] (partner 0.5 µM)
In outline: (§1)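 Lung cancer cell lines, seeded in 1536-well plates, were treated the following day by pin tool with a single drug or with five library-drug doses (not always all listed) in √10 steps on top of a fixed anchor-drug dose. Cells were fixed and nuclei stained in one step after 5 days, and nuclei were counted. Relative viability is the nuclei count for treated wells divided by that for vehicle wells, reported as medians of duplicate plates.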

Compound in the test “Pictilisib + Lapatinib”: CS(=O)(=O)N1CCN(Cc2cc3nc(-c4cccc5[nH]ncc45)nc(N4CCOCC4)c3s2)CC1 [Pictilisib] + CS(=O)(=O)CCNCc1ccc(-c2ccc3ncnc(Nc4ccc(OCc5cccc(F)c5)c(Cl)c4)c3c2)o1 [Lapatinib] (partner 2 µM)
In outline: as §1

Compound in the test “Pictilisib + Linsitinib”: CS(=O)(=O)N1CCN(Cc2cc3nc(-c4cccc5[nH]ncc45)nc(N4CCOCC4)c3s2)CC1 [Pictilisib] + C[C@]1(O)C[C@@H](c2nc(-c3ccc4ccc(-c5ccccc5)nc4c3)c3c(N)nccn32)C1 [Linsitinib] (partner 1 µM)
The method in brief: as §1

Compound in the test “MK-2206 + Palbociclib”: NC1(c2ccc(-c3nc4ccn5c(=O)[nH]nc5c4cc3-c3ccccc3)cc2)CCC1 [MK-2206] + CC(=O)c1c(C)c2cnc(Nc3ccc(N4CCNCC4)cn3)nc2n(C2CCCC2)c1=O [Palbociclib] (partner 0.5 µM)
In outline:
as §1

Compound in the test “MK-2206 + AZD7762”: NC1(c2ccc(-c3nc4ccn5c(=O)[nH]nc5c4cc3-c3ccccc3)cc2)CCC1 [MK-2206] + NC(=O)Nc1cc(-c2cccc(F)c2)sc1C(=O)N[C@H]1CCCNC1 [AZD7762] (partner 0.2 µM)
The method in brief: as §1

As for H3255, the relative viability in the test with Pictilisib + Navitoclax (first compound 0.02 µM) was 0.626; in the test with Pictilisib + Navitoclax (first compound 0.06325 µM), 0.516; with Pictilisib + Navitoclax (first compound 0.6325 µM), 0.498; with Pictilisib + Navitoclax (first compound 2 µM), 0.173; with Pictilisib + Lapatinib (first compound 0.02 µM) it was 0.237; in the test with Pictilisib + Lapatinib (first compound 0.06325 µM), 0.222. Besides, the relative viability turned out to be 0.153 with Pictilisib + Lapatinib (first compound 0.6325 µM); 0.124 in the test with Pictilisib + Lapatinib (first compound 2 µM); 1.04 in the test with Pictilisib + Linsitinib (first compound 0.02 µM); 0.823 in the test with Pictilisib + Linsitinib (first compound 0.06325 µM); 0.84 with Pictilisib + Linsitinib (first compound 0.6325 µM); 0.467 with Pictilisib + Linsitinib (first compound 2 µM). The relative viability in the test with MK-2206 + Palbociclib (first compound 0.01 µM) came out at 0.313; with MK-2206 + Palbociclib (first compound 0.03162 µM), 0.302; with MK-2206 + Palbociclib (first compound 0.3162 µM), 0.283; in the test with MK-2206 + Palbociclib (first compound 1 µM), 0.288; with MK-2206 + AZD7762 (first compound 0.01 µM) it was 0.865; in the test with MK-2206 + AZD7762 (first compound 0.03162 µM) it was 0.883. In addition, the relative viability was found to be 0.903 in the test with MK-2206 + AZD7762 (first compound 0.3162 µM) and 0.829 in the test with MK-2206 + AZD7762 (first compound 1 µM).

For NCI-H2347, the relative viability with Pictilisib + Navitoclax (first compound 0.02 µM) was 0.865; with Pictilisib + Navitoclax (first compound 0.06325 µM) it was 0.874; with Pictilisib + Navitoclax (first compound 0.6325 µM), 0.75; with Pictilisib + Navitoclax (first compound 2 µM), 0.528; in the test with Pictilisib + Lapatinib (first compound 0.02 µM), 0.86; with Pictilisib + Lapatinib (first compound 0.06325 µM), 0.973. In addition, the relative viability in the test with Pictilisib + Lapatinib (first compound 0.6325 µM) amounted to 0.992; in the test with Pictilisib + Lapatinib (first compound 2 µM), 0.729; with Pictilisib + Linsitinib (first compound 0.02 µM), 1.02; with Pictilisib + Linsitinib (first compound 0.06325 µM), 1.08; in the test with Pictilisib + Linsitinib (first compound 0.6325 µM), 1.1; in the test with Pictilisib + Linsitinib (first compound 2 µM), 0.933. Further, the relative viability in the test with MK-2206 + Palbociclib (first compound 0.01 µM) turned out to be 0.418; with MK-2206 + Palbociclib (first compound 0.03162 µM), 0.415; in the test with MK-2206 + Palbociclib (first compound 0.3162 µM), 0.39; with MK-2206 + Palbociclib (first compound 1 µM), 0.3; with MK-2206 + AZD7762 (first compound 0.01 µM), 0.778; with MK-2206 + AZD7762 (first compound 0.03162 µM), 0.652. Further, the relative viability in the test with MK-2206 + AZD7762 (first compound 0.3162 µM) is 0.649; with MK-2206 + AZD7762 (first compound 1 µM), 0.636.

For LK-2, the relative viability was determined as 0.879 with Pictilisib + Navitoclax (first compound 0.02 µM); 0.585 in the test with Pictilisib + Navitoclax (first compound 0.06325 µM); 0.63 with Pictilisib + Navitoclax (first compound 0.6325 µM); 0.321 with Pictilisib + Navitoclax (first compound 2 µM); 0.947 with Pictilisib + Lapatinib (first compound 0.02 µM); 1 with Pictilisib + Lapatinib (first compound 0.06325 µM). The relative viability was determined as 0.618 with Pictilisib + Lapatinib (first compound 0.6325 µM); 0.405 with Pictilisib + Lapatinib (first compound 2 µM); 0.609 with Pictilisib + Linsitinib (first compound 0.02 µM); 0.537 in the test with Pictilisib + Linsitinib (first compound 0.06325 µM); 0.526 with Pictilisib + Linsitinib (first compound 0.6325 µM); 0.426 with Pictilisib + Linsitinib (first compound 2 µM). Moreover, the relative viability came to 0.605 in the test with MK-2206 + Palbociclib (first compound 0.01 µM); 0.881 with MK-2206 + Palbociclib (first compound 0.03162 µM); 0.68 with MK-2206 + Palbociclib (first compound 0.3162 µM); 0.457 in the test with MK-2206 + Palbociclib (first compound 1 µM); 0.325 in the test with MK-2206 + AZD7762 (first compound 0.01 µM); 0.312 in the test with MK-2206 + AZD7762 (first compound 0.03162 µM). Also, the relative viability with MK-2206 + AZD7762 (first compound 0.3162 µM) amounted to 0.259; with MK-2206 + AZD7762 (first compound 1 µM) it was 0.182.

On to HCC-15, for which the relative viability worked out at 0.634 with Pictilisib + Navitoclax (first compound 0.02 µM); 0.644 with Pictilisib + Navitoclax (first compound 0.06325 µM); 0.601 with Pictilisib + Navitoclax (first compound 0.6325 µM); 0.328 with Pictilisib + Navitoclax (first compound 2 µM); 0.936 with Pictilisib + Lapatinib (first compound 0.02 µM); 0.91 with Pictilisib + Lapatinib (first compound 0.06325 µM). The relative viability in the test with Pictilisib + Lapatinib (first compound 0.6325 µM) came to 0.789; in the test with Pictilisib + Lapatinib (first compound 2 µM) it was 0.692; in the test with Pictilisib + Linsitinib (first compound 0.02 µM), 0.852; with Pictilisib + Linsitinib (first compound 0.06325 µM), 0.928; with Pictilisib + Linsitinib (first compound 0.6325 µM) it was 0.87; in the test with Pictilisib + Linsitinib (first compound 2 µM), 0.762. Moreover, the relative viability with MK-2206 + Palbociclib (first compound 0.01 µM) came out at 0.695; with MK-2206 + Palbociclib (first compound 0.03162 µM), 0.792; in the test with MK-2206 + Palbociclib (first compound 0.3162 µM), 0.662; with MK-2206 + Palbociclib (first compound 1 µM), 0.653; with MK-2206 + AZD7762 (first compound 0.01 µM) it was 1.01; in the test with MK-2206 + AZD7762 (first compound 0.03162 µM) it was 1.24. For the same cell line, the relative viability with MK-2206 + AZD7762 (first compound 0.3162 µM) was determined as 1.24; in the test with MK-2206 + AZD7762 (first compound 1 µM) it was 1.23.
